“Also recorded” adds a separate entry of the source.
How the values were obtained:
[1] = Human clinical studies on the safety of iso-C15; format: in vivo
Procedure: Chemically synthesized iso-C15 of 99.8% purity were prepared in 0.20 g capsules. Six healthy adult volunteers (4 male, 2 female) of average age 35.6 were divided into three groups, and orally received iso-C15 capsules for thirty days. Low dose group: one case, 0.6 g daily; middle dose group: two cases, 1.2 g daily; high dose group: three cases, 1.8 g daily. The examinations were carried out before, during and after experiment, including physical examinations, blood and urine routine examinations, function of heart, liver and kidney, X-ray radioscopy of lung and subjective symptom.

[2] = tested on: normal human PBLs; assay: Flow cytometry annexin V / PI apoptosis detection; format: cell-based; conditions: 60 μg/ml, 24 hours
Procedure: (§1) Human cancer cell lines DU-145 (prostate cancer), K562 (leukemia), HCT116 (colon cancer), H1688 (lung cancer), SUN423 (hepatocarcinoma), MCF7 (breast cancer), CRL-1687 (pancreatic cancer), and SUN-1 (gastric cancer) were obtained from American Type Culture Collection (ATCC). 30 ml blood was collected from a health person and normal peripheral mononuclear cells were separated by Ficoll separation solution (Sigma). All cells were maintained in RPMI 1640, DMEM, or McCoy medium supplemented with 10% FCS, […] streptomycin and 100 u/ml penicillin. Normal human peripheral mononuclear cells, K562 and SUN-1 were suspended cells. After spinning at 1,500 RPM for 5 min, supernatants were discharged and cells were resuspended and expended in fresh medium. The other tumor cell lines were adherent cells and were dispersed with 0.05% trypsin/0.01% EDTA (Irvine Scientific, CA) for expansion. Cells were seeded in T75 flasks at 2×10^6 cells/flask in culture medium supplemented with 10% fetal bovine serum and incubated overnight at 37° C. with 5% CO2. The adherent cells attached to the plate were striped with disposable cell scrapers (Fisher Scientific) after treated either with 1% iso-C15, anteiso-C15 or control solution for 1, 2, 4, 8 and 24 hours and then combined with respective float cells. Cells were then prepared for flow cytometry analysis, in situ cell death detection, DNA fragmentation and Western blot assay followed the preparation methods for each assay. Cell pellets treated for 2 and 4 hr with either iso-C15 or control were also stored at −70° C. for future studies of gene regulation.
(§2) A flow cytometer (FACScan) with Consort 30 software for gating analysis (Becton Dickinson, San Jose, Calif.) was used. The Apoptosis Detection kit (R&D Systems) was used to quantitatively determine the percentage of cells undergoing apoptosis by virtue of their ability to bind annexin V and exclude propidium iodide (PI). Cells were washed in cold PBS twice and resuspended in binding buffer. Fluorescent-labeled annexin V and PI were added to the cells. The cells undergoing apoptosis, expressing phosphotidyiserine on the outer leaflet of cell membranes, would bind annexin V. The cells in later stage of apoptosis or necrosis, with a compromised cell membrane, would allow PI to bind to the cellular DNA. The resulting cells were immediately analyzed by flow cytometer equipped with a single laser emitting excitation light at 488 nm. The annexin V and PI generated signals can be detected in signal detector FL1 and FL2, respectively. […]

[3] = tested on: K562 human leukemia cells; assay: Flow cytometry annexin V / PI apoptosis detection; format: cell-based; conditions: 30 μg/ml, 24 hours
Procedure: as §1, §2

[4] = tested on: DMBA-induced mammary cancer; assay: Chemoprevention of DMBA-induced mammary carcinogenesis in rats; format: in vivo, Sprague-Dawley rats; conditions: 0.5 ml of 0.7% solution intragastric, five times a week, twenty weeks after DMBA
Procedure: 13-methyltetradecanoic acid (iso-C15) was prepared by dissolving in NaOH solution and then in 0.35% Tween 80 with pH 7.5.
Fifty female Sprague-Dawley rats were maintained on laboratory chow. At 50 days of age, rats were given a single dose (5 mg) of DMBA (Sigma Chemical Co., St. Louis. Mo.) via an intragastric tube. Seven days after DMBA administration, the rats were randomly divided into two groups of 25. Each rat in the control group was given 0.5 ml of 0.35% Tween 80 five times a week via an intragastric tube throughout the experiment, while each in the test group was given 0.5 ml iso-C15 solution of concentration 0.7%, five times a week. Food and water were available ad libitum. Twenty weeks after DMBA administration, all rats were scarified, and all palpable tumors were removed.

[5] = 0.6–1.8 g daily oral, thirty days
[6] = after test, 0.6–1.8 g daily oral, thirty days

CC(C)CCCCCCCCCCCC(=O)O [iso-C15, 13-methyltetradecanoic acid]
toxicity / side effects in volunteers ([1]; 0.6 g–1.8 g daily for one month, oral): without any side effects; also recorded: without any toxicity effects
heart and lung, electrocardiogram (EKG) and X-ray radioscopy [1, 5]: No abnormality
urine routine [1, 5]: no abnormality
ALT [1, 6]: 15.00 ± 10.33 μ/L
BUN [1, 6]: 6.47 ± 1.72 mmol/L
GRAN [1, 6]: 3.80 ± 0.89 × 10^9
HB [1, 6]: 128 ± 16.9 g/L
PLT [1, 6]: 232.0 ± 52.1 × 10^9/L
RBC [1, 6]: 4.62 ± 0.69 × 10^12/L
WBC [1, 6]: 7.50 ± 0.71 × 10^9/L
ALT ([1]; before test, X ± SD, 6 cases): 15.17 ± 8.70 μ/L
BUN ([1]; before test, X ± SD, 6 cases): 6.69 ± 2.14 mmol/L
GRAN ([1]; before test, X ± SD, 6 cases): 3.20 ± 0.59 × 10^9
HB ([1]; before test, X ± SD, 6 cases): 122 ± 10.4 g/L
PLT ([1]; before test, X ± SD, 6 cases): 203.0 ± 33.3 × 10^9/L
RBC ([1]; before test, X ± SD, 6 cases): 4.64 ± 0.40 × 10^12/L
WBC ([1]; before test, X ± SD, 6 cases): 5.80 ± 0.95 × 10^9/L
FL1/FL2 pattern (annexin V / PI), effect on normal lymphocytes [2]: no significant effects
FL1/FL2 pattern (annexin V / PI), apoptosis [3]: the majority of the cells were undergoing apoptosis
No. of rats with tumors ([4]; 25 rats): 3
Mean tumor weight [4]: 0.8 ± 1.3 g
No. of tumors [4]: 4
No. of tumors per rat [4]: 0.2 ± 0.1
No. of tumors/tumor bearing rat [4]: 1.3 ± 0.5
tumor incidence [4]: 12%
